Results as given in patent US7288273B1, “Gallotannins and ellagitannins as regulators of cytokine release” (The Penn State Research Foundation, priority 2000, dated 2007).

Assays:
sarcoma-180 tumors = conditions: mice infected with sarcoma-180 tumors; cited from earlier work
[1] = system: TNF-α secretion from h-PBMC's; assay: TNF-α release from h-PBMC's, ELISA; assay type: cell-based, human; conditions: for TNF-α secreted in the presence of 17c-21c: 24 hours, ± SD
Description: (§1) Authentic samples of agrimoniin and coriariin A were supplied by Professor Yoshida (Okayama University, Japan). Dimeric gallotannin (analog of coriariin A) and β-D-PGG were synthesized as described. LPS (E. coli 055:B5 phenol extract, MW range 50-100 KD). Ficoll-Histopaque (ρ=1.077 g/mL), Fetal Bovine Serum, sterile, hybridoma tested (FCS), gentamicin 10 mg/mL. L-glutamine, 200 mM. Dextran B-512 Leuconostoc Av M.W. 580000, and Trypan Blue stain were purchased from Sigma. Hanks Buffer Saline Solution 1×, with phenol red, mediatech (HBSS) and RPMI 1640 1×, mediatech were purchased from Fisher Scientific, Human IL-1β and TNF-α Enzyme Linked ImmunoSorbent Assay (ELISA) kits were purchased from R and D Systems, Minneapolis, Minn. Fresh heparinized blood was obtained from health human subjects (ages 20-34).
(§2) Dose-Response Data: General Procedure. H-PBMC's were isolated by reported procedures (10. 18). The cells counted and the viability was determined by Trypan Blue exclusion (typically, viability exceeded 95%). The concentration of the cells in the 0.5 mL wells was adjusted to 1×10^6 cells/well by diluting with the required amount of RPMI.
(§3) The appropriate amount of a tannin (or LPS) stock solution in HBSS was added to each well to furnish the concentration values reported in the Figures. […] The culture plates were incubated in a 5% CO2, 37° C. humidified incubator for the indicated time. At the end of the time interval, 450 μL of the culture supernatant from each well was harvested, after centrifugation at 400 g, 25° C., 10 min. with brake, and stored at −78° C. pending ELISA analysis for the cytokine(s). The ELISA assays were conducted per the manufacturer's instructions using standard calibration curves to calculate cytokine concentration from observed absorbance readings. The cytokine values reported are averages of three runs±SE.
(§4) The dimeric antitumor ellagitannins coriariin A and agrimoniin, the monomeric gallotannin β-D-pentagalloylglucose (β-D-PGG) and the dimeric gallotannin of this invention were all examined in this study. The dimeric gallotannin is an analog of coriariin A and is identical to the parent ellagitannin except that the galloyl rings at O(4) and O(6) are not joined in a hexahydroxydiphenoyl (HHDP) linkage. h-PBMC's were incubated with the compound under investigation for the indicated length of time and the amounts of both IL-1β and, independently, TNF-α, present in the culture supernatants was determined using commercially available ELISA kits. In each case, LPS was used as a positive control while untreated cells were reserved as negative controls.
In the first study, the induction of TNF-α secretion from h-PBMC's in the presence of each compound 17c-21c was measured. The h-PBMC's were incubated with each compound for 24 hours. The TNF-α levels in the cell culture supernatant were assayed by Enzyme Linked ImmunoSorbant Assay (ELISA). The data point for each assay represent the mean of triplicate measurements. […] (See FIG. 11).

[2] = system: IL-1β secretion from h-PBMC's; assay: IL-1β release from h-PBMC's, ELISA; assay type: cell-based, human; conditions: h-PBMC's 2nd subject, ± SD
Description: as §1, §2, §3, §4
In the third study, compounds 17c-20c were examined for their ability to induce secretion of IL-1β from h-PBMC's (FIG. 16). Recall from the introduction that the cytokine IL-1β is also released in an LPS-stimulated septic shock response. The compounds that cause very little secretion of IL-1β or none at all will be the optimal compounds for potential septic shock therapeutics because they will be less likely themselves to induce a septic shock response.

[3] = system: LPS induced TNF-α secretion from h-PBMC's; assay: Inhibition of LPS induced TNF-α secretion from h-PBMC's; assay type: cell-based, human; conditions: LPS 5 μg/mL; for TNF-α secreted in the presence of LPS and 17c-20c: compound 10 μg/mL added after 45 minutes, h-PBMC's 3rd subject, ± SD
Description: In the second study, the ability of compounds 17c-20c to inhibit LPS induced TNF-α production in h-PBMC's was investigated using four assays. The first experiment was a kinetics run in which the h-PBMC's were initially incubated with a fixed concentration of LPS (5 μg/mL) for 45 minutes. This incubation period was followed by addition of a fixed concentration (10 μg/mL) of compounds 17c-20c. The cells were harvested at varying intervals of time. […] The optimal time was determined by comparing the amount of TNF-α secreted by LPS alone to the amount of TNF-α secreted by LPS and substrate at each time point.
The second assay determined the minimum amount of substrate required for inhibition. LPS (10 μg/mL) was incubated with h-PBMC's for 45 minutes followed by addition of 17c-20c at varying concentrations. The cell culture supernatant was harvested after 8 hours. The inherent variability in using cells from different subjects, or in the day of assay, made it difficult to compare overall effectiveness of inhibitors. Therefore, to more easily identify the concentration at which maximum inhibition occurs for a given compound, the TNF-α secretion was normalized by calculating a percent of maximum secretion value (based on LPS alone) (FIG. 13). […] The optimal concentration for inhibition varied between substrates, but the general dose response trend was the same. Overall, the maximum inhibition was 45% for 18c and 20c, and 25% for 19c.
The third assay investigated the ability of 17c, 18c, and 20c to inhibit LPS induced TNF-α secretion using a smaller dosage of LPS (5 μg/mL) (FIG. 14). Again, the response was dose dependent. The maximum inhibition was 45% for 17c and 20c, and 35% for 18c.
In the fourth assay the varying concentrations of substrates 17c-20c and LPS were added at the same time to determine the effect of addition sequence on the inhibition of TNF-α secretion (FIG. 15). The addition time seemed to make a difference in the overall dose response trend. However, maximum inhibition was the same as when the compounds were added 45 minutes after LPS addition (about 40% for each compound).
Finally, in the last study, analogs 19c and 20c were again tested for inhibition LPS induced TNF-α secretion (FIG. 17). In this assay a smaller dose of LPS was used to determine if inhibition was greater when much lower doses of LPS were present. The substrates were added 45 minutes after LPS addition and the cells were harvested after 8 hours. It doesn't appear as though the substrates are better inhibitors when smaller amounts of LPS are used, again perhaps reflecting receptor saturation with LPS at this dosage.

## O=C1OC[C@H]2OC(O)[C@@H]3OC(=O)c4cc(O)c(O)c(O)c4-c4c(cc(O)c(O)c4O)C(=O)O[C@H]3[C@@H]2OC(=O)c2cc(O)c(O)c(O)c2-c2c1cc(O)c(O)c2O (stereo partly drawn) [pedunculagin]
sarcoma-180 tumors
  antitumor effect, in words: much less effective antitumor agents

## O=C(OC1O[C@@H]2COC(=O)c3cc(O)c(O)c(O)c3-c3c(cc(O)c(O)c3O)C(=O)O[C@H]2[C@H](OC(=O)c2cc(O)c(O)c(O)c2)[C@H]1OC(=O)c1cc(O)c(O)c(O)c1)c1cc(O)c(O)c(O)c1 (stereo partly drawn) [Compound 2, tellimagrandin II]
sarcoma-180 tumors
  antitumor effect, in words: much less effective antitumor agents

## O=C(O[C@H]1[C@@H]2OC(=O)c3cc(O)c(O)c(O)c3-c3c(cc(O)c(O)c3O)C(=O)OC[C@H]2OC(O)[C@@H]1OC(=O)c1cc(O)c(O)c(O)c1)c1cc(O)c(O)c(O)c1 (stereo partly drawn) [tellimagrandin I]
sarcoma-180 tumors
  antitumor effect, in words: much less effective antitumor agents

## gemin A
sarcoma-180 tumors
  antitumor effect, in words: induce tumor regression

## 1,1′-2,2′,3,3′,4,4′,6,6′-Tetrakis(3,4,5-trihyroxybenzoyl)-β,β′-D,D′-glucopyranosyl-(2,3′-oxy-di-benzoate) [Compound 21c]
[1]
  TNF-α secretion from h-PBMC's, in words: significant amount of TNF-α secretion
[1]; compound 0.6 μM
  TNF-α secreted in the presence of 17c-21c: 140.7 ± 50.1 pg/mL
[1]; compound 2.8 μM
  TNF-α secreted in the presence of 17c-21c: 80.3 ± 38.1 pg/mL
[1]; compound 5.6 μM
  TNF-α secreted in the presence of 17c-21c: 61.9 ± 11.7 pg/mL
[1]; compound 11.2 μM
  TNF-α secreted in the presence of 17c-21c: 96.2 ± 8.9 pg/mL
[1]; compound 16.8 μM
  TNF-α secreted in the presence of 17c-21c: 379.3 ± 156.6 pg/mL
[1]; compound 22.3 μM
  TNF-α secreted in the presence of 17c-21c: 618.0 ± 182.0 pg/mL
[1]; compound 27.9 μM
  TNF-α secreted in the presence of 17c-21c: 899.0 ± 368.4 pg/mL

## O=C(OC[C@H]1O[C@@H](OC(=O)c2ccc(C(=O)O[C@@H]3O[C@H](COC(=O)c4cc(O)c(O)c(O)c4)[C@@H](OC(=O)c4cc(O)c(O)c(O)c4)[C@H](OC(=O)c4cc(O)c(O)c(O)c4)[C@H]3OC(=O)c3cc(O)c(O)c(O)c3)cc2)[C@H](OC(=O)c2cc(O)c(O)c(O)c2)[C@@H](OC(=O)c2cc(O)c(O)c(O)c2)[C@@H]1OC(=O)c1cc(O)c(O)c(O)c1)c1cc(O)c(O)c(O)c1 [Compound 17c, 1,1′-O-2,2′,3,3′,4,4′,6,6′-Tetrakis(3,4,5-trihydroxybenzoyl)-β,β′-D,D′-glucopyranosylterephthalate]
[2]; compound 0.6 μM
  IL-1β secreted in the presence of 17c-20c: 0 pg/mL
[2]; compound 2.9 μM
  IL-1β secreted in the presence of 17c-20c: 0 pg/mL
[2]; compound 5.9 μM
  IL-1β secreted in the presence of 17c-20c: 3.2 ± 3.6 pg/mL
[2]; compound 11.8 μM
  IL-1β secreted in the presence of 17c-20c: 329.7 ± 443.0 pg/mL
[2]; compound 17.6 μM
  IL-1β secreted in the presence of 17c-20c: 140.5 ± 195.6 pg/mL
[2]; compound 23.5 μM
  IL-1β secreted in the presence of 17c-20c: 630.6 ± 283.1 pg/mL
[2]; compound 29.4 μM
  IL-1β secreted in the presence of 17c-20c: 690.1 ± 101.0 pg/mL
[1]; compound 0.6 μM
  TNF-α secreted in the presence of 17c-21c: 0 pg/mL
[1]; compound 2.9 μM
  TNF-α secreted in the presence of 17c-21c: 0 pg/mL
[1]; compound 5.9 μM
  TNF-α secreted in the presence of 17c-21c: 0 pg/mL
[1]; compound 11.8 μM
  TNF-α secreted in the presence of 17c-21c: 0.26 ± 0.37 pg/mL
[1]; compound 17.6 μM
  TNF-α secreted in the presence of 17c-21c: 0 pg/mL
[1]; compound 23.5 μM
  TNF-α secreted in the presence of 17c-21c: 0.26 ± 0.37 pg/mL
[1]; compound 29.4 μM
  TNF-α secreted in the presence of 17c-21c: 2.5 ± 3.5 pg/mL
[3]; time 1 h
  TNF-α secreted in the presence of LPS and 17c-20c: 511.2 ± 288.3 pg/mL
[3]; time 4 h
  TNF-α secreted in the presence of LPS and 17c-20c: 1896.3 ± 140.9 pg/mL
[3]; time 8 h
  TNF-α secreted in the presence of LPS and 17c-20c: 2477.0 ± 148.2 pg/mL
[3]; time 12 h
  TNF-α secreted in the presence of LPS and 17c-20c: 2574.4 ± 459.9 pg/mL
[3]; time 16 h
  TNF-α secreted in the presence of LPS and 17c-20c: 1811.6 ± 352.9 pg/mL
[3]; time 24 h
  TNF-α secreted in the presence of LPS and 17c-20c: 2266.1 ± 353.3 pg/mL
[3]; 3rd subject
  maximum inhibition of LPS induced TNF-α secretion: 45%
